The numbers were not newly measured in patent US20250160636A1, “Mitigating Ocular Toxicity” (GlaxoSmithKline Intellectual Property Development Limited, priority 2022, published 2025), which cites them from elsewhere.

Like-named read-outs stand apart in the source and are kept apart here.

For the data set the following is noted: for Vision disorder: n = 255, photopsia.

For `CN(C)C/C=C/C(=O)Nc1cc2c(Nc3ccc(F)c(Cl)c3)ncnc2cc1O[C@H]1CCOC1` [Afatinib], the Conjunctivitis (n = 229) is 11%. Also, for the setting “n = 3865 patients”, the Keratitis is listed as 0.8%. Further, the “grade III event” value (number of events, n = 3865 patients) is 1.
For `CC(C)C[C@H](NC(=O)[C@H](Cc1ccccc1)NC(=O)c1cnccn1)B(O)O` [Bortezomib], the “Case reports associated with” value (case reports) was “Case reports associated with eyelid chalazia”. Also, the “Label mentions (ocular toxicity issues)” value (label) is recorded as “Label mentions diplopia, blurred vision, conjunctival infection, irritation”.
Turning to `Cc1cc(Nc2ncc(Cl)c(Nc3ccccc3S(=O)(=O)C(C)C)n2)c(OC(C)C)cc1C1CCNCC1` [Ceritinib], where the note is “comprised of vision impairment, blurred vision, accommodation disorder, presbyopia, or reduced visual acuity”, the Vision disorder result is “Vision disorder 9% (comprised of vision impairment, blurred vision, photopsia,”.
For the compound `C[C@@H](Oc1cc(-c2cnn(C3CCNCC3)c2)cnc1N)c1c(Cl)ccc(F)c1Cl` [Crizotinib], the Vision disorder result (includes diplopia, photophobia, vision blurred, visual field defect, visual impairment, vitreous floaters, visual brightness, and visual acuity reduced) is recorded as “Vision disorder 64% (Includes diplopia, photopsia, photophobia, vision blurred,”.
For the compound `CC(C)(C)c1nc(-c2cccc(NS(=O)(=O)c3c(F)cccc3F)c2F)c(-c2ccnc(N)n2)s1` [Dabrafenib], the “Can cause (ocular toxicity issue)” value (in vivo) was “cystoid macula edema”. The Uveitis/Iritis (n = 586) is listed as 1%.
As to `Cc1nc(Nc2ncc(C(=O)Nc3c(C)cccc3Cl)s2)cc(N2CCN(CCO)CC2)n1` [Dasatinib], for the setting “cohort not given”, the Conjunctivitis is on record as 0.1-1%. Under “in vivo”, the “Visual disorder (visual disturbance, vision blurred, decreased visual acuity) or dry eye” value was 1-10%.
For `C#Cc1cccc(Nc2ncnc3cc(OCCOC)c(OCCOC)cc23)c1` [Erlotinib], the “Reported Conjunctivitis” value (n = 84) is recorded as 18%. Besides, for the setting “n = 485”, the Conjunctivitis is 12%; the “Keratoconjunctivitis Sicca” value was “n = 485 and Keratoconjunctivitis Sicca 12% n = 485. Mentions of corneal”. The “Conjunctivitis Grade III” value (number of events, n = 485) was 1. For the same compound, the “pooled incidence of ocular disorders” value (one pancreatic cancer study) was 12.8%. Further, the “pooled incidence of ocular disorders” value (three lung cancer studies) is 17.8%.
With `COc1cc2ncnc(Nc3ccc(F)c(Cl)c3)c2cc1OCCCN1CCOCC1` [Gefitinib], the “Mentions of (ocular toxicity issues)” value (full list, wrapped over lines: eye irritation, eye pain, corneal erosion/ulcer, aberrant eyelash growth, corneal membrane sloughing, and ocular ischemia/hemorrhage) is “Mentions of eye irritation, eye pain, corneal erosion/ulcer, aberrant eyelash”.
As for `Cc1cn(-c2cc(NC(=O)c3ccc(C)c(Nc4nccc(-c5cccnc5)n4)c3)cc(C(F)(F)F)c2)cn1` [Nilotinib], the “Frequency class of vision impairment, vision blurred, visual acuity reduced, photopsia, eye irritation” value (in vivo) is given as “Uncommon: vision impairment, vision blurred, visual acuity reduced, photopsia,”.
With `CC(=O)Nc1cccc(-n2c(=O)n(C3CC3)c(=O)c3c(Nc4ccc(I)cc4F)n(C)c(=O)c(C)c32)c1` [Trametinib], the “Incidence of Retinal Veinous Occlusion” value (4/1,749) is “halo. Incidence of Retinal Veinous Occlusion was 0.2% (4/1,749)”. For the same compound, the “Incidence of Retinal Pigment Epithelial Detachment” value (14/1,749) is reported as “Incidence of Retinal Pigment Epithelial Detachment was 0.8% (14/1,749)”. The “Mentions (ocular toxicity issues)” value (full list, wrapped over lines: blurry vision, dry eye, transient blindness, eye floaters, and visual halo) is “Mentions blurry vision, dry eye, transient blindness, eye floaters, and visual”.
For `COc1cc2c(Nc3ccc(Br)cc3F)ncnc2cc1OCC1CCN(C)CC1` [Vandetanib], under “No cohort information”, the “Blurry vision (corneal opacities)” value is “Blurry vision (corneal opacities) 9%. No cohort information”.
Turning to `CCCS(=O)(=O)Nc1ccc(F)c(C(=O)c2c[nH]c3ncc(-c4ccc(Cl)cc4)cc23)c1F` [Vemurafenib], under “in vivo”, the “Mentions (ocular toxicity issues)” value is “Mentions retinal vein occlusion, uveitis, blurry vision, iritis, and photophobia”.
Consider Panitimumab, for which, under “in 463 patients”, the Conjunctivitis is 4%; the Eye/eyelid irritation is listed as 1%; the increased lacrimation result was “increased lacrimation (2%), in 463 patients”; the ocular hyperemia is listed as 3%.
Regarding Pertuzumab, the “Mentions (ocular toxicity issues)” value (in vivo) was “Mentions increased lacrimation”.
As to Rituximab, the “Mentions (ocular toxicity issues)” value (in vivo) is “Mentions uveitis and optic neuritis”.
